# Data as given in patent publication US20220128564A1, “USE OF A STIMULATING AGENT TO ASSAY IMMUNE CELL POTENCY” (RESEARCH INSTITUTE AT NATIONWIDE CHILDREN'S HOSPITAL, priority 2019, published 2022).
# What was measured:
# [1] = tested on: fresh peripheral blood NK cells; test: PHA-induced cytokine assay, fresh peripheral blood NK cells; type: cell-based; settings: fresh NK cells (N=10), 10^6 cells, 1 hour stimulation with PHA, supernatant
# Source text: (§1) Use of tumor cells to test effector function of therapeutic immune cells has been a standard practice. These target cells add biological variabilities to the outcomes of assay. Also, this assay set up is more tedious and complicated adding up variabilities due to target condition, plate set up, person-to-person difference in techniques. The therapeutic response of NK cells via comparison of a PHA cytokine assay against a widely use tumor cell (K562) mediated cytokine assay. The levels of cytokine indicate potency of the response from the NK cells.
# (§2) After establishing an optimal number of cells (10^6) for the assay, multiple donors of fresh peripheral blood NK cells (N=10) and expanded NK cells (N=18) were stimulated with PHA to produce cytokines, and after 1 hour cytokine in the supernatant was assessed. Expression of most cytokines are similar between the two types of NK cells, but several cytokines and chemokines related to NK cell function were highly differentially expressed in response to stimulation (FIG. 6). Next the expression of 6 cytokines in fresh and expanded NK cells was measured after 1 hour stimulation with PHA. Pentraxin-3 (mean 1,062 vs 7), IL-8 (mean 821 vs 11), and Chitinase 3-like 1 (mean 620 vs 7) were highly overexpressed in fresh NK cells compared to expanded NK cells, and IFN-γ (mean 15 vs 105), IL-2 (mean 3 vs 141), and CD30 (mean9 vs. 156) were highly overexpressed in expanded NK cells compared to fresh NK cells (FIG. 7). On the basis of overexpression alone, a cut-off of expressing 10 pg/mL of both IFN-γ and IL-2 has 94% specificity […] and 89% sensitivity (16 of 18) in differentiating expanded NK cells from fresh peripheral blood NK cells (FIG. 8).
# [2] = tested on: expanded NK cells; test: PHA-induced cytokine assay, expanded NK cells; type: cell-based; settings: expanded NK cells (N=18), 10^6 cells, 1 hour stimulation with PHA, supernatant
# Source text: as §1, §2
substance,measurement,setting,value
phytohemagglutinin [PHA],CD30 expression (mean),[1],9
same,Chitinase 3-like 1 expression (mean),[1],620
same,IFN-γ expression (mean),[1],15
same,IL-2 expression (mean),[1],3
same,IL-8 expression (mean),[1],821
same,Pentraxin-3 expression (mean),[1],"1,062"
same,CD30 expression (mean),[2],156
same,Chitinase 3-like 1 expression (mean),[2],7
same,IFN-γ expression (mean),[2],105
same,IL-2 expression (mean),[2],141
same,IL-8 expression (mean),[2],11
same,Pentraxin-3 expression (mean),[2],7
